Measurements from US9650340B2, “5-fluoro-N-(pyridin-2-yl)pyridin-2-amine derivatives containing a sulfoximine group” (BAYER PHARMA AKTIENGESELLSCHAFT, priority 2012, dated 2017).
Values after ≈ are worked out from the molar mass of the structure shown.

What was measured:
[1] = test system: A2780, human ovarian carcinoma cells; assay: Proliferation assay, A2780 (crystal violet); type: cell-based; details: Homo sapiens, A2780, 96 h, A2780, 4 days; read-out: Inhibition of A2780 cell proliferation IC50
Procedure: (§1) Cultivated tumour cells (HeLa, human cervical tumour cells, ATCC CCL-2; NCI-H460, human non-small cell lung carcinoma cells, ATCC HTB-177; A2780, human ovarian carcinoma cells, ECACC #93112519; DU 145, hormone-independent human prostate carcinoma cells, ATCC HTB-81; HeLa-MaTu-ADR, multidrug-resistant human cervical carcinoma cells, EPO-GmbH Berlin; Caco-2, human colorectal carcinoma cells, ATCC HTB-37; B16F10, mouse melanoma cells, ATCC CRL-6475) were plated at a density of 5,000 cells/well (DU145, HeLa-MaTu-ADR), 3,000 cells/well (NCI-H460, HeLa), 2,500 cells/well (A2780), 1,500 cells/well (Caco-2), or 1,000 cells/well (B16F10) in a 96-well multititer plate in 200 μL of their respective growth medium supplemented 10% fetal calf serum. After 24 hours, the cells of one plate (zero-point plate) were stained with crystal violet (see below), while the medium of the other plates was replaced by fresh culture medium (200 μl), to which the test substances were added in various concentrations (0 μM, as well as in the range of 0.001-10 μM; the final concentration of the solvent dimethyl sulfoxide was 0.5%). The cells were incubated for 4 days in the presence of test substances. Cell proliferation was determined by staining the cells with crystal violet: the cells were fixed by adding 20 μl/measuring point of an 11% glutaric aldehyde solution for 15 minutes at room temperature. After three washing cycles of the fixed cells with water, the plates were dried at room temperature. The cells were stained by adding 100 μl/measuring point of a 0.1% crystal violet solution (pH 3.0). After three washing cycles of the stained cells with water, the plates were dried at room temperature. The dye was dissolved by adding 100 μl/measuring point of a 10% acetic acid solution. The extinction was determined by photometry at a wavelength of 595 nm. The change of cell number, in percent, was calculated by normalization of the measured values to the extinction values of the zero-point plate (=0%) and the extinction of the untreated (0 μm) cells (=100%). The IC50 values (inhibitory concentration at 50% of maximal effect) were determined by means of a 4 parameter fit. Non-adherent MOLM-13 human acute myeloid leukemia cells (DSMZ ACC 554) were seeded at a density of 5,000 cells/well in a 96-well multititer plate in 100 μL of growth medium supplemented 10% fetal calf serum. After 24 hours, cell viability of one plate (zero-point plate) was determined with the Cell Titre-Glo Luminescent Cell Viability Assay (Promega), while 50 μL of test compound containing medium was added to the wells of the other plates (final concentrations in the range of 0.001-10 μM and DMSO controls; the final concentration of the solvent dimethyl sulfoxide was 0.5%). Cell viability was assessed after 72-hour exposure with the Cell Titre-Glo Luminescent Cell Viability Assay (Promega).

[2] = Equilibrium shake flask solubility assay, thermodynamic solubility in citrate buffer pH 4; type: physicochemical; details: citrate buffer, pH 4, aqueous buffer, thermodynamic from solid, citrate buffer pH 4, 24 h, room temperature; read-out: Solubility in aqueous Citrate buffer pH4
Procedure: 4b) Thermodynamic Solubility in Citrate Buffer pH 4
Thermodynamic solubility was determined by an equilibrium shake flask method [Literature: Edward H. Kerns and Li Di (2008) Solubility Methods in: Drug-like Properties: Concepts, Structure Design and Methods, p276-286. Burlington, Mass.: Academic Press].
A saturated solution of the drug was prepared and the solution was mixed for 24 h to ensure that equilibrium has been reached. The solution was centrifuged to remove the insoluble fraction and the concentration of the compound in solution was determined using a standard calibration curve.
To prepare the sample, 1.5 mg solid compound was weighed in a 4 ml glass vial. 1 ml Citrate buffer pH 4 was added. The suspension was put on a stirrer and mixed for 24 hrs at room temperature. The solution was centrifuged afterwards. To prepare the sample for the standard calibration, 0.6 mg solid sample was dissolved in 19 ml acetonitrile/water 1:1. After sonification the solution was filled up with acetonitrile/water 1:1 to 20 ml.
Sample and standards were quantified by HPLC with UV-detection. For each sample two injection volumes (5 and 50 μl) in triplicates were made. Three injection volumes (5 μl, 10 μl and 20 μl) were made for the standard.
The areas of sample- and standard injections as well as the calculation of the solubility value (in mg/l) were determined by using HPLC software (Waters Empower 2 FR).

[3] = test system: MOLM-13 human acute myeloid leukemia cells; assay: Proliferation assay, MOLM-13 (Cell Titre-Glo); type: cell-based; details: Homo sapiens, MOLM-13, 72 h, MOLM-13, 72-hour exposure; read-out: Inhibition of MOLM-13 cell proliferation IC50
Procedure: as §1

CDK9/CycT1 = target: T1, CDK9/CycT1 (Homo sapiens, UniProt P50750); assay: CDK9/CycT1 kinase assay (TR-FRET, 10 μM ATP); type: biochemical; details: Method 1a
T1 construct: Recombinant full-length His-tagged human CDK9 and CycT1; His; purchased Invitrogen PV4131; host or cells: insect cells
T1 sequence (P50750 whole entry): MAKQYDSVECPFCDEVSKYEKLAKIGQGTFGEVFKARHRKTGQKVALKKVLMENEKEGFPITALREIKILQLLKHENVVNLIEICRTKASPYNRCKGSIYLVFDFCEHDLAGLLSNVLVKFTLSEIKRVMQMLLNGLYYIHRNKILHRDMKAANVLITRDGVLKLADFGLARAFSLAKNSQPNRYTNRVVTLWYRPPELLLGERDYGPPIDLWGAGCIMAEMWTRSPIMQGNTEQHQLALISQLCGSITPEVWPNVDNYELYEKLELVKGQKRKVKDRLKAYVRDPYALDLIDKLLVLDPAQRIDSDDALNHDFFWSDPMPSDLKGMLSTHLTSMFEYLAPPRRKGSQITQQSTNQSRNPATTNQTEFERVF
T1 sequence (O60563 whole entry partner): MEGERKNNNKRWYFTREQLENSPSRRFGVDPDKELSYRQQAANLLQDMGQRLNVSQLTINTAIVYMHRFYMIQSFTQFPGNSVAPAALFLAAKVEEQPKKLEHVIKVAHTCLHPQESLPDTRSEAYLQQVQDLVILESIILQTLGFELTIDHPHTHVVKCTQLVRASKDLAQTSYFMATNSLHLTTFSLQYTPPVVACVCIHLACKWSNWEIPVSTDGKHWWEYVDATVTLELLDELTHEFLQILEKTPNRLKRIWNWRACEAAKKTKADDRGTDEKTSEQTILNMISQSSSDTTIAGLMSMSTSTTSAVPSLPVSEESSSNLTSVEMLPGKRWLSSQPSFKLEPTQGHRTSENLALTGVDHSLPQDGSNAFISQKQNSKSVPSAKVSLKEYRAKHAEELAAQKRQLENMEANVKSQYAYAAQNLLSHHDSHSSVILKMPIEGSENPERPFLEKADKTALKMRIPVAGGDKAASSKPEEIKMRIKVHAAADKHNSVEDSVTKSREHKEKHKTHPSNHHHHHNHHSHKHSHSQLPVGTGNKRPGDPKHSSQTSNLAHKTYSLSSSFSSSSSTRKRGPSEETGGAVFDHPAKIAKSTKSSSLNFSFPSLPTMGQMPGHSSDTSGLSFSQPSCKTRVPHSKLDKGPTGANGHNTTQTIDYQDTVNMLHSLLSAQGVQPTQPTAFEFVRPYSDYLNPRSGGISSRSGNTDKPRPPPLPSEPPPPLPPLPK
Source text: 1a. CDK9/CyeT1 Kinase Assay:
CDK9/CycT1-inhibitory activity of compounds of the present invention was quantified employing the CDK9/CycT1 TR-FRET assay as described in the following paragraphs:
Recombinant full-length His-tagged human CDK9 and CycT1, expressed in insect cells and purified by Ni-NTA affinity chromatography, were purchased from Invitrogen (Cat. No PV4131). As substrate for the kinase reaction biotinylated peptide biotin-Ttds-[…] (C-terminus in amid form) was used which can be purchased e.g. form the company JERINI Peptide Technologies (Berlin, Germany). For the assay 50 nl of a 100 fold concentrated solution of the test compound in DMSO was pipetted into a black low volume 384 well microtiter plate (Greiner Bio-One, Frickenhausen, Germany), 2 μl of a solution of CDK9/CycT1 in aqueous assay buffer [50 mM Tris/HCl pH 8.0, 10 mM MgCl2, 1.0 mM dithiothreitol, 0.1 mM sodium ortho-vanadate, 0.01% (v/v) Nonidet-P40 (Sigma)] were added and the mixture was incubated for 15 min at 22° C. to allow pre-binding of the test compounds to the enzyme before the start of the kinase reaction.
The resulting mixture was incubated 1 h at 22° C. to allow the formation of complex between the phosphorylated biotinylated peptide and the detection reagents. Subsequently the amount of phosphorylated substrate was evaluated by measurement of the resonance energy transfer from the Eu-chelate to the streptavidine-XL.

Row | Compound | IC50 [1] | solubility at 24 h [2] | IC50 [3] | IC50 (CDK9/CycT1)
1 | COc1cc(F)ccc1-c1cc(Nc2cc(CS(=N)(=O)CCN)ccn2)ncc1F (racemic) [Example 9, (rac)-N-(4-{[S-(2-Aminoethyl)sulfonimidoyl]methyl}pyridin-2-yl)-5-fluoro-4-(4-fluoro-2-methoxyphenyl)pyridin-2-amine] | 210 nM | 660 µg/mL (≈ 1520 µM) | 120 nM | 8 nM
2 | COc1cc(F)ccc1-c1cc(Nc2cc(CS(C)(=N)=O)cc(F)n2)ncc1F (racemic) [Example 17, (rac)-5-Fluoro-4-(4-fluoro-2-methoxyphenyl)-N-{6-fluoro-4-[(S-methylsulfonimidoyl)methyl]pyridin-2-yl}pyridin-2-amine] | 14 nM | 3 µg/mL (≈ 7.1 µM) | 20 nM | 0.9 nM
3 | COc1cc(F)ccc1-c1cc(Nc2cc(CS(C)(=O)=NC#N)ccn2)ncc1F (single isomer, unassigned) [Example 10, {[(2-{[5-Fluoro-4-(4-fluoro-2-methoxyphenyl)pyridin-2-yl]amino}pyridin-4-yl)methyl](methyl)oxido-λ^6-sulfanylidene}cyanamide] | 10 nM | 102 µg/mL (≈ 238 µM) | 12 nM | 4 nM
4 | COc1cc(F)ccc1-c1cc(Nc2cc(CS(C)(=N)=O)cc(C)n2)ncc1F (racemic) [Example 4, (rac)-5-Fluoro-4-(4-fluoro-2-methoxyphenyl)-N-{6-methyl-4-[(S-methylsulfonimidoyl)methyl]pyridin-2-yl}pyridin-2-amine] | 37 nM | 470 µg/mL (≈ 1120 µM) | 35 nM | 4 nM
